Laboratory results as given in PubChem BioAssay AID256 (DTP/NCI, 2004).
Inconclusive results and toxic doses are left out. The calls were made as follows: active = survival T/C of 150% or more; inactive = T/C below 125% in these data.

Tested on: CD2F1 mice, L1210 leukemia ip, survival T/C
Experiment: NCI In Vivo Anticancer Drug Screen. Data for tumor model L1210 Leukemia (intraperitoneal) in CD2F1 (CDF1) mice
Conditions: higher = longer survival
Procedure, shortened: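 Compound-dosed mice with transplantable tumor versus matched vehicle controls; endpoint ratio T/C reported.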

[1] = endpoint: mean survival time, dose: 100.0 mg/kg/injection, schedule: Q04DX003 (ip), vehicle: saline with Tween-80
[2] = endpoint: mean survival time, dose: 200.0 mg/kg/injection, schedule: Q04DX003 (ip), vehicle: saline with Tween-80
[3] = endpoint: mean survival time, dose: 400.0 mg/kg/injection, schedule: Q04DX003 (ip), vehicle: saline with Tween-80
[4] = endpoint: mean survival time, dose: 100.0 mg/kg/injection, schedule: Q01DX009 (ip), vehicle: saline with Tween-80

Measured: T/C

O=C(O)CC1CCCCCCCCCCC1=O (stereo not given)
inactive: endpoint: mean survival time, dose: 100.0 mg/kg/injection, schedule: Q04DX002 (ip), vehicle: saline with Tween-80 98 % of control | endpoint: mean survival time, dose: 200.0 mg/kg/injection, schedule: Q04DX002 (ip), vehicle: saline with Tween-80 91 % of control | endpoint: mean survival time, dose: 400.0 mg/kg/injection, schedule: Q04DX002 (ip), vehicle: saline with Tween-80 98 % of control

O=C(CCc1ccc(O)cc1)ON1C(=O)CCC1=O
inactive: endpoint: mean survival time, dose: 50.0 mg/kg/injection, schedule: Q01DX009 (ip), vehicle: Klucel (hydroxypropylcellulose) (HPC) 105 % of control

OC(CC1(O)C(F)(F)C(F)(F)C1(F)F)c1ccccc1 (stereo not given)
inactive: [1] 96 % of control | [2] 92 % of control | [3] 90 % of control

COC1OC(CO)C2OC(=O)NC2C1O (stereo not given)
inactive: endpoint: mean survival time, dose: 100.0 mg/kg/injection, schedule: Q04DX003 (ip), vehicle: saline 98 % of control | endpoint: mean survival time, dose: 200.0 mg/kg/injection, schedule: Q04DX003 (ip), vehicle: saline 94 % of control | endpoint: mean survival time, dose: 400.0 mg/kg/injection, schedule: Q04DX003 (ip), vehicle: saline 100 % of control

NCC(=O)Nc1ccc(O)cc1
inactive: endpoint: mean survival time, dose: 180.0 mg/kg/injection, schedule: Q04DX003 (ip), vehicle: saline 104 % of control | endpoint: mean survival time, dose: 405.0 mg/kg/injection, schedule: Q04DX003 (ip), vehicle: saline 98 % of control

CCC[CH2][Sn]1([CH2]CCC)[O]C(=O)C2CC=CCC2C(=O)[O]1 (stereo not given)
inactive: endpoint: mean survival time, dose: 100.0 mg/kg/injection, schedule: Q01DX001 (ip), vehicle: saline 102 % of control | endpoint: mean survival time, dose: 200.0 mg/kg/injection, schedule: Q01DX001 (ip), vehicle: saline 104 % of control

O=C(CNC(=O)c1ccccc1)N/N=C/c1ccncc1
inactive: [4] 90 % of control | endpoint: mean survival time, dose: 400.0 mg/kg/injection, schedule: Q01DX009 (ip), vehicle: saline with Tween-80 92 % of control

CCCCCCCCCCCC(=O)Nc1ccc(C(C)C)cc1
inactive: [1] 97 % of control | [2] 96 % of control

O=C(O)c1cscn1.O=C(O)c1cscn1.[I][Pt][I]
inactive: endpoint: mean survival time, dose: 3.12 mg/kg/injection, schedule: Q04DX003 (ip), vehicle: distilled water + Tween-80 108 % of control | endpoint: mean survival time, dose: 6.25 mg/kg/injection, schedule: Q04DX003 (ip), vehicle: distilled water + Tween-80 101 % of control | endpoint: mean survival time, dose: 12.5 mg/kg/injection, schedule: Q04DX003 (ip), vehicle: distilled water + Tween-80 104 % of control | endpoint: mean survival time, dose: 25.0 mg/kg/injection, schedule: Q04DX003 (ip), vehicle: distilled water + Tween-80 102 % of control | endpoint: mean survival time, dose: 50.0 mg/kg/injection, schedule: Q04DX003 (ip), vehicle: distilled water + Tween-80 104 % of control | endpoint: mean survival time, dose: 50.0 mg/kg/injection, schedule: Q04DX003 (ip), vehicle: saline with Tween-80 110 % of control | endpoint: mean survival time, dose: 100.0 mg/kg/injection, schedule: Q04DX003 (ip), vehicle: distilled water + Tween-80 114 % of control | [1] 104 % of control | endpoint: mean survival time, dose: 200.0 mg/kg/injection, schedule: Q04DX003 (ip), vehicle: distilled water + Tween-80 119 % of control | [2] 122 % of control | [3] 112 % of control

CC(=O)OCc1ncccc1OC(C)=O
inactive: endpoint: mean survival time, dose: 25.0 mg/kg/injection, schedule: Q01DX009 (ip), vehicle: suspension in saline 102 % of control | endpoint: mean survival time, dose: 50.0 mg/kg/injection, schedule: Q01DX009 (ip), vehicle: suspension in saline 98 % of control | endpoint: mean survival time, dose: 100.0 mg/kg/injection, schedule: Q01DX009 (ip), vehicle: suspension in saline 102 % of control | endpoint: mean survival time, dose: 200.0 mg/kg/injection, schedule: Q01DX009 (ip), vehicle: suspension in saline 93 % of control

C/C=C(\C)C(C)(C#N)Nc1ccccc1 (stereo not given)
inactive: endpoint: mean survival time, dose: 50.0 mg/kg/injection, schedule: Q01DX009 (ip), vehicle: saline with Tween-80 103 % of control | [4] 100 % of control | [1] 101 % of control | endpoint: mean survival time, dose: 200.0 mg/kg/injection, schedule: Q01DX009 (ip), vehicle: saline with Tween-80 102 % of control | [2] 101 % of control | [3] 95 % of control

CC(/C=N/N=C(N)N)=N\N=C(N)N
inactive: endpoint: mean survival time, dose: 12.5 mg/kg/injection, schedule: Q04DX003 (ip), vehicle: Klucel (hydroxypropylcellulose) (HPC) 97 % of control | endpoint: mean survival time, dose: 25.0 mg/kg/injection, schedule: Q04DX003 (ip), vehicle: Klucel (hydroxypropylcellulose) (HPC) 98 % of control | endpoint: mean survival time, dose: 50.0 mg/kg/injection, schedule: Q04DX003 (ip), vehicle: Klucel (hydroxypropylcellulose) (HPC) 110 % of control | endpoint: mean survival time, dose: 53.6 mg/kg/injection, schedule: Q03HX024 (ip), vehicle: clinical formulation 92 % of control | endpoint: median survival time, dose: 120.0 mg/kg/injection, schedule: Q01DX009 (ip), vehicle: saline 87 % of control

Cc1cccc(C)c1N=C(c1ccccc1)N(O)c1ccccc1
inactive: endpoint: mean survival time, dose: 1.88 mg/kg/injection, schedule: Q01DX009 (ip), vehicle: saline with Tween-80 101 % of control | endpoint: mean survival time, dose: 1.88 mg/kg/injection, schedule: Q04DX003 (ip), vehicle: saline 93 % of control | endpoint: mean survival time, dose: 3.75 mg/kg/injection, schedule: Q01DX009 (ip), vehicle: saline with Tween-80 95 % of control | endpoint: mean survival time, dose: 3.75 mg/kg/injection, schedule: Q04DX003 (ip), vehicle: saline 96 % of control | endpoint: mean survival time, dose: 7.5 mg/kg/injection, schedule: Q01DX001 (ip), vehicle: saline 103 % of control | endpoint: mean survival time, dose: 7.5 mg/kg/injection, schedule: Q01DX009 (ip), vehicle: saline with Tween-80 98 % of control | endpoint: mean survival time, dose: 7.5 mg/kg/injection, schedule: Q04DX003 (ip), vehicle: saline 98 % of control

COc1cc2c(cc1OC)C1c3cc(OC)c(OC)cc3CCN1CC2
inactive: endpoint: mean survival time, dose: 12.5 mg/kg/injection, schedule: Q01DX009 (ip), vehicle: other 103 % of control | endpoint: mean survival time, dose: 25.0 mg/kg/injection, schedule: Q01DX009 (ip), vehicle: other 94 % of control

CN1C(C)(C)CC(CN2c3ccccc3Sc3ccccc32)C1(C)C (stereo not given)
inactive: [1] 97 % of control | [2] 104 % of control
